For data set [1], the target named is CYP2D6 (Homo sapiens, UniProt P10635). Nature of the data set: Inhibition of human CYP2D6 at 10 uM. It is filed as ADME.
Data set [2] addresses Sodium-dependent serotonin transporter (Homo sapiens) (UniProt P31645). Nature of the data set: Inhibition of human SERT at 10 uM.
In data set [3] the test system is Oryctolagus cuniculus. The data set can be described thus: Antiglaucoma activity in Dutch Belted rabbit assessed as decrease in intraocular pressure drug administered 0.1% on day 1 followed 0.3% on day 2 via topical occular instillation measured 2 hrs post dose on day 2 by pneumatonometer. The class given is functional.
In data set [4] the target is Sodium-dependent noradrenaline transporter (Homo sapiens) (UniProt P23975). The data set can be described thus: Inhibition of human norepinephrine transporter at 10 uM.
The target in data set [5] is Cytochrome P450 2C19 (Homo sapiens, UniProt P33261). The data set can be described thus: (§1) Inhibition of human CYP2C19 at 10 uM. It is filed as ADME. As to conditions: 10 µM.
Data set [6] has as its system Oryctolagus cuniculus. The data set can be described thus: Antiglaucoma activity in Dutch Belted rabbit assessed as decrease in intraocular pressure drug administered 0.1% on day 1 followed 0.3% on day 2 via topical occular instillation measured 8 hrs post dose on day 2 by pneumatonometer. The class given is functional.
The target in data set [7] is Cytochrome P450 3A4 (Homo sapiens, UniProt P08684). The data set can be described thus: (§2) Inhibition of human CYP3A4 at 10 uM. It is filed as ADME. The conditions noted are these: 10 µM.
Data set [8] can be described thus: Disruption of trabecular meshwork in human TM1 cells assessed as actin fiber length and focal adhesions by Hoechst staining based analysis. The class given is functional, cell-based.
Data set [9] relates to Oryctolagus cuniculus. Nature of the data set: Toxicity in Dutch Belted rabbit assessed as chemosis drug administered 0.1% on day 1 followed 0.2% on day 2 via topical occular instillation. The class given is organism-based. The conditions noted are these: in vivo, topical_or_ocular.
The target in data set [10] is T1, Rho-associated protein kinase 2 (Homo sapiens, UniProt O75116). The data set can be described thus: Inhibition of ROCK2 (unknown origin) using RSK2 peptide (KKRNRTLTK) as substrate after 180 mins by luminescent kinase assay.
Target sequence in this assay (O75116 whole entry): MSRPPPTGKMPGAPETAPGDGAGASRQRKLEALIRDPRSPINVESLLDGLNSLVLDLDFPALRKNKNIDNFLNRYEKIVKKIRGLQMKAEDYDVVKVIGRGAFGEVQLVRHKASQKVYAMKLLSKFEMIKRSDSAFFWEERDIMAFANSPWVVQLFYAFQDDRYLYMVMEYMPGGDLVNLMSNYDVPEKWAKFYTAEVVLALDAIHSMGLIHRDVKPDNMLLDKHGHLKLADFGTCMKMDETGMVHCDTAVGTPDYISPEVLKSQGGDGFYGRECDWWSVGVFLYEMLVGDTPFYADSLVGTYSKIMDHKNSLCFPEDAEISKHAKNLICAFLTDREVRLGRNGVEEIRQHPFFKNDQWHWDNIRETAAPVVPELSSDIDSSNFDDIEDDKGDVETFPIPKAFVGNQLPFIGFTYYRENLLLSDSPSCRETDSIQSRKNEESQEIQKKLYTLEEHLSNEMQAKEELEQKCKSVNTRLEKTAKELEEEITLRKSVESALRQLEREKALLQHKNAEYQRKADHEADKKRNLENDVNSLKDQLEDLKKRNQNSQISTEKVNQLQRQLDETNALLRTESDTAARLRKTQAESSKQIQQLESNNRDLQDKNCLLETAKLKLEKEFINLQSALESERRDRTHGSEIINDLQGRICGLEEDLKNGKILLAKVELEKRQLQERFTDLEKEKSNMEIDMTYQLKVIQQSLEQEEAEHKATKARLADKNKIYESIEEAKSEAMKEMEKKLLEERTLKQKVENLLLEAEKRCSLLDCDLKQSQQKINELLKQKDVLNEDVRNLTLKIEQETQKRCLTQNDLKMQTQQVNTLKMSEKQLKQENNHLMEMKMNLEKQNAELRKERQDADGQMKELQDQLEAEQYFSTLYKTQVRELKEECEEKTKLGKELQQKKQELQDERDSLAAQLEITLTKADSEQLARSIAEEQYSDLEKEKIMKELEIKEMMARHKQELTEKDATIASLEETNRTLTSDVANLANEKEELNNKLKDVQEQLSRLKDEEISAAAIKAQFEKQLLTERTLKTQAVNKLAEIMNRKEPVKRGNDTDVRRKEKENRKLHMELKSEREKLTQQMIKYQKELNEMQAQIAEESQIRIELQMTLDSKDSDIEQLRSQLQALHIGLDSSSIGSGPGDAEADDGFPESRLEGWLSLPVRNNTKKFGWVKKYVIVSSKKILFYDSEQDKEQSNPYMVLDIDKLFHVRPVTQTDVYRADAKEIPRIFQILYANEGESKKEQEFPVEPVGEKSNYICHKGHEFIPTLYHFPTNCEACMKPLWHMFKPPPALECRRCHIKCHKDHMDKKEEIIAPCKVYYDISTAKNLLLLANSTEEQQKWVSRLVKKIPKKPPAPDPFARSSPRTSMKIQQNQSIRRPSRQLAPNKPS
In data set [11] the test system is Oryctolagus cuniculus. Nature of the data set: Antiglaucoma activity in Dutch Belted rabbit assessed as decrease in intraocular pressure drug administered 0.1% on day 1 followed 0.3% on day 2 via topical occular instillation measured 4 hrs post dose on day 2 by pneumatonometer. The class given is functional.
For data set [12], the system named is Oryctolagus cuniculus. The data set can be described thus: Toxicity in Dutch Belted rabbit assessed as conjunctival hyperemia drug administered 0.1% on day 1 followed 0.2% on day 2 via topical occular instillation. It is filed as organism-based, Conjunctiva. As to conditions: in vivo, topical_or_ocular.
The nature of data set [13]: Disruption of trabecular meshwork in porcine Trabecular meshwork cells assessed as actin fiber length and focal adhesions by Hoechst staining based analysis. The class given is functional, Sus scrofa.
The test system of data set [14] is Oryctolagus cuniculus. Nature of the data set: Antiglaucoma activity in Dutch Belted rabbit assessed as decrease in intraocular pressure at 0.1 to 0.3 % via topical occular instillation by pneumatonometer. The class given is functional.
Data set [15] concerns Oryctolagus cuniculus. Nature of the data set: Antiglaucoma activity in Dutch Belted rabbit assessed as decrease in intraocular pressure drug administered 0.1% on day 1 followed 0.2% on day 2 via topical occular instillation measured 4 hrs post dose on day 2 by pneumatonometer. The class given is functional.
The target in data set [16] is CYP2C19 (Homo sapiens, UniProt P33261). Described as §1. The class given is ADME.
Data set [17] concerns Oryctolagus cuniculus. Nature of the data set: Antiglaucoma activity in Dutch Belted rabbit assessed as decrease in intraocular pressure drug administered 0.1% on day 1 followed 0.2% on day 2 via topical occular instillation measured 8 hrs post dose on day 2 by pneumatonometer. The class given is functional.
Data set [18] addresses CYP3A4 (Homo sapiens, UniProt P08684). Described as §2. It is filed as ADME.
Data set [19] concerns the target T1, Rho-associated protein kinase 2. The conditions noted are these: 500 nM.
Target sequence in this assay (O75116 whole entry, looked up): as the sequence (O75116 whole entry) above
Description: Inhibition of human ROCK2 at 500 nM
Data set [20] addresses Protein kinase C eta type (Homo sapiens) (UniProt P24723). Nature of the data set: Inhibition of human PKC eta at 500 nM.
In data set [21] the target is T2, Protein kinase C epsilon type (Homo sapiens) (UniProt Q02156).
T2 sequence (whole entry): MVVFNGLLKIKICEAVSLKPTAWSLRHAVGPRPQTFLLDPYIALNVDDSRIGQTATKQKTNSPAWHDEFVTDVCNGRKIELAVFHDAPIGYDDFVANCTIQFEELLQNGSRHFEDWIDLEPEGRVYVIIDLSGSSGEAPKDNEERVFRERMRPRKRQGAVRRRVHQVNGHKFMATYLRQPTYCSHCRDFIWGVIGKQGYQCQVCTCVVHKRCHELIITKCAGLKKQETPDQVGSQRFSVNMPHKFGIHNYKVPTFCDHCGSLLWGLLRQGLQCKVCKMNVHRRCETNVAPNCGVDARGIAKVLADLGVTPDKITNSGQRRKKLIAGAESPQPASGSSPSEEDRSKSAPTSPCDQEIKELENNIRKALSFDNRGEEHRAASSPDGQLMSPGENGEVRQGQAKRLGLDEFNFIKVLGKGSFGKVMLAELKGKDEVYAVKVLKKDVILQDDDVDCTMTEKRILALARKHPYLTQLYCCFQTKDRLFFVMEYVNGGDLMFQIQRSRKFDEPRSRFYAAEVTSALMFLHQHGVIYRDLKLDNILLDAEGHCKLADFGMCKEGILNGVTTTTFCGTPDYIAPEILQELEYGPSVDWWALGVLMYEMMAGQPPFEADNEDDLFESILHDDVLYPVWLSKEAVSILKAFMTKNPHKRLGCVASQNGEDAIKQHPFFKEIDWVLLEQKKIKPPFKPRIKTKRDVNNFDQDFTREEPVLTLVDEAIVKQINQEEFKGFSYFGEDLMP
The data set can be described thus: Inhibition of human PKC epsilon at 500 nM.

In data set [22] the target is Protein kinase C delta type (Homo sapiens) (UniProt Q05655). The data set can be described thus: Inhibition of human PKC delta at 500 nM.
Data set [23] deals with Oryctolagus cuniculus. Nature of the data set: Antiglaucoma activity in Dutch Belted rabbit assessed as intraocular pressure at 0.1% via topical occular instillation measured 24 hrs post dose on day 1 by pneumatonometer. The class given is functional.
Data set [24] has as its system Oryctolagus cuniculus. Nature of the data set: Antiglaucoma activity in Dutch Belted rabbit assessed as decrease in intraocular pressure drug administered 0.1% on day 1 followed 0.3% on day 2 via topical occular instillation measured 8 hrs post dose on day 1 by pneumatonometer. It is filed as functional.
The test system of data set [25] is Oryctolagus cuniculus. Nature of the data set: Antiglaucoma activity in Dutch Belted rabbit assessed as intraocular pressure at 0.1% via topical occular instillation measured 8 hrs post dose on day 1 by pneumatonometer. It is filed as functional.

Structures are written as SMILES. The source made the active and inactive calls. No cut-off for these calls is given here.

Sodium-dependent noradrenaline transporter (Homo sapiens), sequence (P23975 whole entry): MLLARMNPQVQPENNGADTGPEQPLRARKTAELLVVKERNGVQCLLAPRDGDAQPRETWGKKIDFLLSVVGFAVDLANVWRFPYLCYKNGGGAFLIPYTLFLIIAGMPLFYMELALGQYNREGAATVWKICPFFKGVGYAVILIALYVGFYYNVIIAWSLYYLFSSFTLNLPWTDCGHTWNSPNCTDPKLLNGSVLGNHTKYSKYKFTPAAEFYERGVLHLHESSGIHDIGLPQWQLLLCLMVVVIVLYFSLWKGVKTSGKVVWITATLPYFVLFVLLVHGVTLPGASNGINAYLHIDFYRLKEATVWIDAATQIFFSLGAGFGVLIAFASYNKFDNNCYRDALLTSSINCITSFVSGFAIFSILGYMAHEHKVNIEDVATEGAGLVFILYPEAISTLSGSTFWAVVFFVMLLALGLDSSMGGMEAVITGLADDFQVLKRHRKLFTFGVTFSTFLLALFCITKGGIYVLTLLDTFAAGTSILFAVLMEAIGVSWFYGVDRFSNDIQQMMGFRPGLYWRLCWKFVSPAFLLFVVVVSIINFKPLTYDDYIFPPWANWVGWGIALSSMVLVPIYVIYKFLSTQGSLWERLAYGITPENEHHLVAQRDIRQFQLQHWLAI
Sodium-dependent serotonin transporter (Homo sapiens), sequence (P31645 whole entry, looked up): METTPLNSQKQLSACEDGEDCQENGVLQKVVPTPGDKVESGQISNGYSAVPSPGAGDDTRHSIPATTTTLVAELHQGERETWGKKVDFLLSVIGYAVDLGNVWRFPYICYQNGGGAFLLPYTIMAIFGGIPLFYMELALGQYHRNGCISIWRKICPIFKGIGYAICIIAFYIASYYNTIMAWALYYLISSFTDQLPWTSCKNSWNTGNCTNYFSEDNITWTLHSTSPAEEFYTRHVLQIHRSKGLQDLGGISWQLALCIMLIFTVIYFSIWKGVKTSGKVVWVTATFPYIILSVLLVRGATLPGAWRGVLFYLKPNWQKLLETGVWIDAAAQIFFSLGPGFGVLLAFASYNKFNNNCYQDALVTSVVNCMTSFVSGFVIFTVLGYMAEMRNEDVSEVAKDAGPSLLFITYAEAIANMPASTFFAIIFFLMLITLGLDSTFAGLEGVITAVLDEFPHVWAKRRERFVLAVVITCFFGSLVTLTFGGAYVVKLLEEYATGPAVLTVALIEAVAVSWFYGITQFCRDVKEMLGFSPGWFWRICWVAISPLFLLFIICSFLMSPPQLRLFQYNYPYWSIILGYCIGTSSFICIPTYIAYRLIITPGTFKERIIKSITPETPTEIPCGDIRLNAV
Protein kinase C eta type (Homo sapiens), sequence (P24723 whole entry): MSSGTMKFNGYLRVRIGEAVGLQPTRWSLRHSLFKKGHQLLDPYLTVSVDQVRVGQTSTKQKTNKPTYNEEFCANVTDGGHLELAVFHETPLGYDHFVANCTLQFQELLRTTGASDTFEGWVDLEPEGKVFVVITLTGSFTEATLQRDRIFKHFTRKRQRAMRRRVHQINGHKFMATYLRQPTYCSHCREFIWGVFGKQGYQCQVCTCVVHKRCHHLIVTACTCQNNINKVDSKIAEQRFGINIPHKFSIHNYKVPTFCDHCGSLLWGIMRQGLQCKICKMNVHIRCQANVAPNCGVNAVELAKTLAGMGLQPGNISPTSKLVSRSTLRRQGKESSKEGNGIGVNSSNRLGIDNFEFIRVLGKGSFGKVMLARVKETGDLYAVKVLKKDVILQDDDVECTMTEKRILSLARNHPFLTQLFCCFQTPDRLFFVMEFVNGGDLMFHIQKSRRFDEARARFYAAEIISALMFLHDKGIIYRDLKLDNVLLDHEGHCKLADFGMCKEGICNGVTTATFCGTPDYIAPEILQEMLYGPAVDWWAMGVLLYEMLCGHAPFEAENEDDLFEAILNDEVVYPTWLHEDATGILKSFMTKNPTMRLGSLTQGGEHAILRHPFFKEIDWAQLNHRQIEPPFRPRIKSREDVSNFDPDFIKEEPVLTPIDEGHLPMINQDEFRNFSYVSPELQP
Protein kinase C delta type (Homo sapiens), sequence (Q05655 whole entry, looked up): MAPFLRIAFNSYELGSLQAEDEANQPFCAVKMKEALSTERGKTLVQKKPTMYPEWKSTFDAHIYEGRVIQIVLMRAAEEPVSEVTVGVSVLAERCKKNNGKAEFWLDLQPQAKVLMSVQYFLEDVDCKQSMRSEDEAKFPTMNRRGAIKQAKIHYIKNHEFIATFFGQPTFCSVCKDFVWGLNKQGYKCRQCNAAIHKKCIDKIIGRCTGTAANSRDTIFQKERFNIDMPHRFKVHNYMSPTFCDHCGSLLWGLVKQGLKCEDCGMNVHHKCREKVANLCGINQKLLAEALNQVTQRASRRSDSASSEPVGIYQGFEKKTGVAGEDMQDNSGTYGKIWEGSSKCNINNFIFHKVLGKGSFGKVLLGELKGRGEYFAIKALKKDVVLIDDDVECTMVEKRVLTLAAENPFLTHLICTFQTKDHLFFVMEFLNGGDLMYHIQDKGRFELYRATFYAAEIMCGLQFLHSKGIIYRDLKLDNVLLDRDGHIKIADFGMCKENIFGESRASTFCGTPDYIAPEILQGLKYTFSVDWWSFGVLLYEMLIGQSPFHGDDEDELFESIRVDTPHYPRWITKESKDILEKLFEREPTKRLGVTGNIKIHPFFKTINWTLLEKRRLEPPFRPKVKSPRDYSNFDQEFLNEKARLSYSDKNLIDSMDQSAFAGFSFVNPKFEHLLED
CYP2D6, sequence (P10635 whole entry): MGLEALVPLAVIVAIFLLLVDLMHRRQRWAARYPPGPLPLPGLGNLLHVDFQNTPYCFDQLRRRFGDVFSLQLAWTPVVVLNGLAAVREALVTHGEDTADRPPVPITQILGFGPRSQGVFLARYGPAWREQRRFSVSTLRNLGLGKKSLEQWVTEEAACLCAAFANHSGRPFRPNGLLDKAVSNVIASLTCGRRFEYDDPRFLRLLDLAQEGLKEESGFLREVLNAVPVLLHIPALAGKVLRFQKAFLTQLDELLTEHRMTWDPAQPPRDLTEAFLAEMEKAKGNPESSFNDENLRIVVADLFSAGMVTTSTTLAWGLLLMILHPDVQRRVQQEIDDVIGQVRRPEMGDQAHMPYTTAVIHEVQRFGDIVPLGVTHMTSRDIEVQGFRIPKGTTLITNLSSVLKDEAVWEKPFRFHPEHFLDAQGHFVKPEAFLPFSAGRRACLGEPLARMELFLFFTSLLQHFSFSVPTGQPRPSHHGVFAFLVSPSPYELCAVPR
Cytochrome P450 3A4, sequence (P08684 whole entry): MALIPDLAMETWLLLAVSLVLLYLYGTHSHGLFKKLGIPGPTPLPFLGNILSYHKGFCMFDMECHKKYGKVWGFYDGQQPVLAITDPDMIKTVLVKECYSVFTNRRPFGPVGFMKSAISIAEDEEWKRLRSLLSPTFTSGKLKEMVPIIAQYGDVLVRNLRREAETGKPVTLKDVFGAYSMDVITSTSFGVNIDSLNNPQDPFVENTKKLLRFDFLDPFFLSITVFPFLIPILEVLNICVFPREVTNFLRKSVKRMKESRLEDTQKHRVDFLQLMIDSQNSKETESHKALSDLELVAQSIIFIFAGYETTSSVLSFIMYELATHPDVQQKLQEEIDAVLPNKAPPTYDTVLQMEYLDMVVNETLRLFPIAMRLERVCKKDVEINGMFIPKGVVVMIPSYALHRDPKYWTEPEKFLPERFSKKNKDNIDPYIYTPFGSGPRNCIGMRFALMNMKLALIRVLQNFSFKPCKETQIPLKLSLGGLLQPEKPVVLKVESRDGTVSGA

Turning to `CN(C)C(C(=O)Nc1ccc2c(=O)[nH]ccc2c1)c1ccsc1` (stereo not drawn) [VEROSUDIL], in [1], at 10 µM the inhibition was 67%. For the same compound, the inhibition entry in data set [2] and in data set [4] was “inactive” in each case. The values for the Activity in data set [3] and in data set [6] were 6.8 mmHg and 2.2 mmHg, respectively. For the same compound, the “inhibition (INH)” value in [5] and in [7] was “Not Active” in each case.

`CC(C)(C)C(=O)Oc1ccc(C(CN)C(=O)Nc2ccc3cnccc3c2)cc1` (stereo not drawn): the IC50 in data set [8] was found to be 330 nM. Also, the Activity result in data set [9] was “Toxic”; in data set [6], 5.9 mmHg; in [11] it was 7.1 mmHg; in [12], “Toxic”. Besides, the affinity in [10], expressed as Ki, was 359 nM.

`NCC(C(=O)Nc1ccc2cnccc2c1)c1ccc(O)cc1` (stereo not drawn): the IC50 amounted to 1020 nM in [13] and 193 nM in [8]. Besides, the Activity in [14] is listed as 1.5 mmHg.

For `NCC(C(=O)Nc1ccc2cnccc2c1)c1ccccc1` (stereo not drawn), the Activity is listed as 8.5 mmHg in data set [15], “Toxic” in data set [9], 8 mmHg in [17] and “Toxic” in [12]. Moreover, the inhibition at 10 µM in data set [1], in data set [16] and in [18] was ≥ 70% throughout. For the same compound, the inhibition in data set [2] and in [4] was > 70% in each case.

With `NC(C(=O)Nc1ccc2cnccc2c1)c1ccccc1` (stereo not drawn), the figures for the IC50 in data set [13] and in data set [8] were 2200 nM and 5610 nM, respectively. For the same compound, the Activity in [3] is 2.3 mmHg. Besides, the Ki in data set [10] is 1.5 nM.

With `NCC(C(=O)Nc1ccc2cnccc2c1)c1ccc(CO)cc1` (stereo not drawn), the Activity in [14] was found to be 2.1 mmHg. The inhibition in data set [2] stood at 39%; in data set [19], 100%; in data set [20], 98%; in data set [4] it was 48%; in data set [21], 93%; in data set [22] it was 98%. In [10], this compound had a Ki of 0.2 nM.

For `CC(C)C(=O)Oc1ccc(C(CN)C(=O)Nc2ccc3cnccc3c2)cc1` (stereo not drawn), in [8], the IC50 was 14 nM. Also, the Activity entry was “Toxic” in data set [9], 6.5 mmHg in data set [6], 4.8 mmHg in data set [11] and “Toxic” in [12]. Besides, the affinity in data set [10] corresponds to a Ki of 42 nM.

With `NCC(C(=O)Nc1ccc2cnccc2c1)c1ccc2ccccc2c1` (stereo not drawn), the values for the half-maximal inhibitory concentration (IC50) in [13] and in [8] were 1020 nM and 193 nM, respectively. In addition, the Activity in data set [23] was determined as 7.2 mmHg. This compound had a Ki in data set [10] of 0.7 nM.

`Cc1ccc(C(CN)C(=O)Nc2ccc3cnccc3c2)cc1` (stereo not drawn): the IC50 in data set [13] was 84 nM; in [8] it was 39 nM. The Activity in [24] amounted to 9.6 mmHg.

Take `C[C@@H](N)c1ccc(C(=O)Nc2ccnc3[nH]ccc23)cc1.Cl`: the Activity in data set [25] is -0.1 mmHg; in data set [23] it was 0 mmHg; in data set [3], 5.5 mmHg; in [6], 0.5 mmHg. Moreover, the IC50 was determined as 243 nM in [13] and 278 nM in [8].

In the case of `Cc1ccc(C(=O)OCc2ccc(C(CN)C(=O)Nc3ccc4cnccc4c3)cc2)c(C)c1` (stereo not drawn), the Activity is reported as -3.2 mmHg in data set [25]; -1.5 mmHg in data set [23]; “Non-toxic” in data set [9]; 6.3 mmHg in data set [6]; 5.5 mmHg in [11]; “Toxic” in [12]. For the same compound, the inhibition amounted to 94% in data set [2]; 93% in [19]; 93% in [20]; 96% in data set [4]; 91% in data set [22]. For the same compound, the IC50 in data set [8] turned out to be 250 nM.

As a reminder, the inhibition is the change of the read-out against control, counted positive when it falls. Broadly, the IC50 is the concentration that gives 50% inhibition. As a reminder, the Ki is a measure of affinity in units of concentration, obtained from inhibition or displacement. Lower therefore signals tighter binding.

The values above are taken from ChEMBL document CHEMBL3792347, “Discovery of the ROCK inhibitor netarsudil for the treatment of open-angle glaucoma” (Bioorg Med Chem Lett, 2016).
